Results from PMC2956650, “The Dopamine Metabolite 3-Methoxytyramine Is a Neuromodulator” (PLoS ONE, 2010).
Read-outs that look alike come from different tables or passages of the source.

Target: T1, human trace amine associated receptor 1 (hTAAR1) (Homo sapiens, UniProt Q96RJ0)
T1 construct: gene TAAR1; hTAAR1 with the first nine amino acids of the β2-adrenergic receptor added at N-terminus
T1 sequence (Q96RJ0 1-339): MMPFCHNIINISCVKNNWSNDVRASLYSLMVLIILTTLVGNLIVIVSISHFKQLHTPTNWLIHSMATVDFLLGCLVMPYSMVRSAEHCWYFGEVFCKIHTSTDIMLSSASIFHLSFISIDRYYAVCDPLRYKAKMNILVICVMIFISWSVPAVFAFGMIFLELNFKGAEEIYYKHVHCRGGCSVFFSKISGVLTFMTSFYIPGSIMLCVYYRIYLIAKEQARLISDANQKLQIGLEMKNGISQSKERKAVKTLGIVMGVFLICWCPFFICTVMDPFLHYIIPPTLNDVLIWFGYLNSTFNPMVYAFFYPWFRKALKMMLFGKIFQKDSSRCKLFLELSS
Experiment: [3H]-cAMP accumulation (column assay) in HEK-293 cells transfected with hTAAR1; no effect in mock cells
Format: cell-based

COc1cc(CCN)ccc1O [3-MT, 3-methoxytyramine]
EC50: 700 ± 180 nM

NCCc1ccc(O)cc1 [tyramine]
EC50 (read-out: EC50): 320 ± 100 nM
